Inconclusive results are not listed.

Drawing on PubChem BioAssay AID602161 (Broad Institute, 2011), this text covers AC50 for six molecules.

In the assay the target is Heat shock protein HSP 90-alpha (Homo sapiens) (UniProt P07900). The assay is described as follows: human Hsp90 inhibitors in yeast GR reporter, dose response, selectivity assay for Plasmodium Hsp90 inhibitor project, S. cerevisiae, beta-galactosidase luminescence, dry powder (AID 602161). The settings on record: S. cerevisiae HsHsp90 GR reporter, beta-gal luminescence.
Turning to `O=S(=O)(/C=C/c1ccccc1)NC1CCCCCCC1`, the AC50 was 9.6 µM. Regarding `O=C(CSCC(=O)N1CCCCC1)Nc1nc(-c2ccc(Cl)s2)cs1`, the AC50 is 9.72 µM.

As for `Cc1ccc(OCc2n[nH]c(=S)n2C2CCCCC2)cc1`, the AC50 was 12.6 µM. The figure for `COc1ccc2c(c1)C=C(C(=O)NCc1ccc(Cl)cc1)CO2` is 9.79 µM. On to `O=S(=O)(NC1CCCCCC1)c1ccc(Br)s1`, for which the AC50 was 2.6 µM. Next, `CCOc1cc(S(=O)(=O)NC2CCCCCC2)ccc1F`: 22.2 µM.

In general, AC50 refers to the concentration at which the activity in the assay is half-maximal.
